{"source": "patent US20260315499A1", "about": "“2'- {HETEROCYCLYL (ARYL/ALKYL) METHYL} - CANNABIDIOL COMPOUNDS AND PROCESS FOR PREPARATION THEREOF” (COUNCIL OF SCIENTIFIC & INDUSTRIAL RESEARCH, priority 2023, published 2026)", "key": {"[1]": {"system": "differentiated human neuroblastoma cell line SHSY5Y", "assay": "In vitro neuroprotection against corticosterone, differentiated SHSY5Y, 48 hrs", "assay_type": "cell-based", "method": "(§1) Human neuroblastoma cells (SHSY5Y) and mouse neuroblastoma cells (N2A) were procured from American Type Culture Collection (ATCC). SHSY5Y cell cultures were maintained in DMEM F12 (Invitrogen) whereas N2A were cultured in DMEM (Invitrogen) with 10% Fetal Bovine Serum (Gibco) medium, subjected to differentiation to acquire neuronal morphology (employing differentiation media DMEM-F12, 3-5% FBS, (For differentiation, low concentration of FBS was used) and 50 μM retinoic acid). Differentiated cells were later seeded into 96 well plates, at a density of 1×10^4 before being incubated for 48 hrs with the synthesized library. The exhausted culture media was substituted with new culture media containing 0.5 mg/ml MTT dye. Eventually, the OD at 490 nm excitation was measured using a 96-well plate reader. The proportion of viable cells was determined as percentage of absorbance of untreated cultures relative to control.\nIn the next attempt, the neuroprotective properties of the generated library (20 μM, 48 hrs) were assessed employing differentiated human neuroblastoma cell line SHSY5Y and mouse neuroblastoma cell line N2A (Biomol Ther., 2022, 30(6), 570-575). The cells were assaulted with the neurotoxic corticosterone (Cort, 400 μM) for 24 hrs after the overnight preincubation of cells with test molecules as a selection criterion. […]"}, "depression mice model [2]": {"system": "depression mice model", "assay": "In vivo corticosterone induced depression model: Forced Swim Test", "design": "species or system mouse (male C57)", "method": "(§2) In vivo efficacy (ameliorates behavioral despair) of A1 in corticosterone induced model of stress (J. Neurochem., 2018 146, 722 734). […] A1 (20 mg/kg, oral) dissolved in normal saline was given for 3 consecutive weeks following corticosteroid stress. The sucrose preference test was employed, tail suspension test, and forced swim test to evaluate behavioral distress. We noticed that A1 can resurrect mice in stressful situations. […]\nThe forced swim test was employed to evaluate behavioral melancholy in depressed subjects. Each animal was individually conditioned in a glass cylinder 20 cm long, 10 cm deep and 14 cm radius of curvature. After being submerged in water for 5 mins, the mice's cumulative stationary episode, struggle in water, and eventual floating condition were evaluated. The duration for which the animals were motionless while attempting to hold both of their front limbs still was calculated by interpreting the visualizations portraying behavioral despair (Front Behav Neurosci., 2018, 12, 42)."}, "p TrkB 816": {"system": "p TrkB 816", "assay": "Survival pathway protein expression by western blotting in SHSY5Y", "assay_type": "cell-based, human", "details": "for Relative Protein Expression p TrkB 816: A1 + Cort."}, "[3]": {"assay": "Cell viability assay in macrophage RAW264.7 cells (MTT)", "assay_type": "cell-based", "details": "mouse, read-out: % cell viability ± SD", "method": "RAW264.7 cells were seeded in 96-well cell culture plates at a density of 1×10^4 cells per well and incubated overnight at 37° C. with 5% CO2. Next day, the cells were treated with CBD or its derivatives at 5 μM and/or 10 μM concentration for 24 hrs. The MTT dye (2.5 mg/ml, 20 μL) was added to each well 4 hrs before termination (Molecules. 2022, 27, 8068). After 4 hrs of incubation with MTT, the supernatant was discarded, and the formazan crystals were dissolved by adding 100 μL DMSO. The absorbance was recorded at 540 nm on microplate reader (Tecan Infinite Pro)."}, "p TrkB 515": {"system": "p TrkB 515", "assay": "Survival pathway protein expression by western blotting in SHSY5Y", "assay_type": "cell-based, human"}, "[4]": {"assay": "Cell viability assay in differentiated neuronal cells (MTT), SHSY5Y", "assay_type": "cell-based", "details": "human, read-out: % Cell viability ± SD, SHSY5Y", "description": "(§3) In the present disclosure outlined herein, a focused library of cannabidiol analogues were studied for possible neuro-protective potential employing cell line-based stress model systems which mimic the biological stress conditions in vitro (J Cell Biochem., 2018, 119(8), 6482-6491).\nas §1"}, "[5]": {"system": "nitric oxide (NO) production in RAW264.7 macrophages", "assay": "In vitro anti-inflammatory activity: nitric oxide production (Griess) in LPS-exposed RAW264.7 macrophages", "assay_type": "cell-based, mouse", "details": "Mus musculus, RAW264.7, LPS 24 hrs, read-out: % NO Inhibition ± SD", "method": "Measurement of Nitric oxide: RAW264.7 macrophages were seeded in 96-well plates with a density of 0.5×10^5 cells/well and incubated overnight at 37° C. in a 5% CO2 atmosphere. The cells were treated with different concentration of CBD and its analogues and exposed to LPS for 24 hrs. For nitric oxide (NO) determination, the cell culture supernatant was taken and mixed with equal volume of Griess reagent in another 96 well plate at room temperature (Biomed Pharmacother., 2017, 92, 175-186). The absorbance was measured at 540 nm. The final calculations were determined on a NaNO2 standard curve."}, "[6]": {"assay": "In vivo corticosterone induced depression model: effect on body weight", "design": "species or system mouse (male C57)", "details": "21 days; for Weight (g) ± SD: A1 20 mg/kg oral, fluoxetine 18 mg/kg", "method": "as §2"}, "[7]": {"assay": "Cell viability assay in differentiated neuronal cells (MTT), N2A", "assay_type": "cell-based", "details": "mouse, read-out: % Cell viability ± SD, N2A", "description": "as §3, §1"}, "depression mice model [8]": {"system": "depression mice model", "assay": "In vivo corticosterone induced depression model: sucrose preference test", "design": "species or system mouse (male C57)", "details": "for % Sucrose consumption (ml) ± SD: 2% sucrose, 21 days", "method": "as §2\nSucrose consumption was employed to evaluate anhedonia, a core hallmark of depression in mice. The animals were allowed unfettered access to both identical bottles, one containing water while the other contained a 2% solution of sucrose, for 21 days.\nThe below equation was later employed to determine water and sugar consumed by mice:\nSucrose Preference=Sucrose consumed[…]/Total fluid intake."}, "[9]": {"details": "A1 for multiple time spans, corticosterone"}}}
{"smiles": "C=C(C)[C@@H]1CCC(C)=C[C@H]1c1c(O)cc(CCCCC)c(CN2CCOCC2)c1O", "note": "[A1, 2′-(morpholin-1-ylmethyl)-cannabidiol]", "values": [{"measurement": "cell viability (in words)", "setting": "[1]; 20 μM + Cort. 400 μM, compared with corticosterone treated group, SHSY5Y and N2A", "value": "the highest number of viable cells were observed in A1 treated line"}, {"measurement": "viability at 20 µM", "setting": "[1]; Homo sapiens, SH-SY5Y, test compound 20 μM + Cort. 400 μM, 48 hrs, read-out: % Cell viability ± SD, SHSY5Y", "value": "97.9 ± 1.31", "unit": "%"}, {"measurement": "% Immobility (sec) ± SD (dead time)", "setting": "depression mice model [2]; with Cort.", "value": "17.67 ± 5.12", "unit": "s"}, {"measurement": "% Latency to immobility (sec) ± SD", "setting": "depression mice model [2]; with Cort.", "value": "34.06 ± 14.03", "unit": "s"}, {"measurement": "% Immobility (sec) ± SD (dead time)", "setting": "depression mice model [2]; without Cort.", "value": "24.22 ± 5.30", "unit": "s"}, {"measurement": "% Latency to immobility (sec) ± SD", "setting": "depression mice model [2]; without Cort.", "value": "44.59 ± 19.55", "unit": "s"}, {"measurement": "Relative Protein Expression p TrkB 816", "setting": "p TrkB 816; 0 hr", "value": 1.012}, {"measurement": "Relative Protein Expression p TrkB 816", "setting": "p TrkB 816; 0.5 hr", "value": 1.309}, {"measurement": "Relative Protein Expression p TrkB 816", "setting": "p TrkB 816; 1 hr", "value": 10.54}, {"measurement": "Relative Protein Expression p TrkB 816", "setting": "p TrkB 816; 2 hr", "value": 16.76}, {"measurement": "Relative Protein Expression p TrkB 816", "setting": "p TrkB 816; 4 hr", "value": 23.54}, {"measurement": "expression of p TrkB 816 (in words)", "setting": "p TrkB 816; [9]", "value": "remarkably increased"}, {"measurement": "viability at 24 h, 5 µM", "setting": "[3]; RAW264.7, 5 μM", "value": "93.1 ± 1.1", "unit": "%"}, {"measurement": "viability at 24 h, 10 µM", "setting": "[3]; RAW264.7, 10 μM", "value": "83.5 ± 0.6", "unit": "%"}, {"measurement": "Relative Protein Expression p TrkB 515", "setting": "p TrkB 515; A1 5 μM, 6 hrs", "value": 0.23}, {"measurement": "Relative Protein Expression p TrkB 515", "setting": "p TrkB 515; A1 + Cort., 0 hr", "value": 1.019}, {"measurement": "Relative Protein Expression p TrkB 515", "setting": "p TrkB 515; A1 + Cort., 0.5 hr", "value": 2.277}, {"measurement": "Relative Protein Expression p TrkB 515", "setting": "p TrkB 515; A1 + Cort., 1 hr", "value": 6.57}, {"measurement": "Relative Protein Expression p TrkB 515", "setting": "p TrkB 515; A1 + Cort., 2 hr", "value": 8.707}, {"measurement": "Relative Protein Expression p TrkB 515", "setting": "p TrkB 515; A1 + Cort., 4 hr", "value": 8.145}, {"measurement": "expression of p TrkB 515 (in words)", "setting": "p TrkB 515; [9]", "value": "remarkably increased"}, {"measurement": "viability at 48 h, 20 µM", "setting": "[4]", "value": "115.7 ± 0.71", "unit": "%"}, {"measurement": "inhibition at 5 µM", "setting": "[5]; 5 μM", "value": "7.1 ± 0.8", "unit": "%"}, {"measurement": "inhibition at 10 µM", "setting": "[5]; 10 μM", "value": 12.3, "unit": "%"}, {"measurement": "toxicity / weight fluctuations (in words)", "setting": "[6]; 20 mg/kg oral", "value": "no discernible toxicity"}, {"measurement": "Weight (g) ± SD", "setting": "[6]; with Cort. 35 μg/ml", "value": "36.75 ± 3.88", "unit": "g"}, {"measurement": "Weight (g) ± SD", "setting": "[6]; without Cort.", "value": "42.88 ± 2.69", "unit": "g"}, {"measurement": "viability at 48 h, 20 µM", "setting": "[7]", "value": "114 ± 2.28", "unit": "%"}, {"measurement": "increase of sucrose consumption", "setting": "depression mice model [8]; compared with stressed mice", "value": "more than 50%"}, {"measurement": "% Sucrose consumption (ml) ± SD", "setting": "depression mice model [8]; with Cort.", "value": "78.02±0.99", "unit": "%"}, {"measurement": "% Sucrose consumption (ml) ± SD", "setting": "depression mice model [8]; without Cort.", "value": "83.80±0.80", "unit": "%"}]}
